# Measurements as given in ChEMBL document CHEMBL5131569, “SAGE-718: A First-in-Class N-Methyl-d-Aspartate Receptor Positive Allosteric Modulator for the Potential Treatment of Cognitive Impairment” (J Med Chem, 2022).
# pEC50, pIC50: −log10 of the molar value.
# Key:
# [1] = Plasma protein binding in rat after 15 mins by equilibrium dialysis method; assay type: ADME, cell-free; details: read-out: PPB (converted)
# Cytochrome P450 2C8 = target: T1, Cytochrome P450 2C8 (Homo sapiens, UniProt P10632); assay: Inhibition of CYP2C8 (unknown origin); assay type: ADME
# T1 sequence (P10632 whole entry): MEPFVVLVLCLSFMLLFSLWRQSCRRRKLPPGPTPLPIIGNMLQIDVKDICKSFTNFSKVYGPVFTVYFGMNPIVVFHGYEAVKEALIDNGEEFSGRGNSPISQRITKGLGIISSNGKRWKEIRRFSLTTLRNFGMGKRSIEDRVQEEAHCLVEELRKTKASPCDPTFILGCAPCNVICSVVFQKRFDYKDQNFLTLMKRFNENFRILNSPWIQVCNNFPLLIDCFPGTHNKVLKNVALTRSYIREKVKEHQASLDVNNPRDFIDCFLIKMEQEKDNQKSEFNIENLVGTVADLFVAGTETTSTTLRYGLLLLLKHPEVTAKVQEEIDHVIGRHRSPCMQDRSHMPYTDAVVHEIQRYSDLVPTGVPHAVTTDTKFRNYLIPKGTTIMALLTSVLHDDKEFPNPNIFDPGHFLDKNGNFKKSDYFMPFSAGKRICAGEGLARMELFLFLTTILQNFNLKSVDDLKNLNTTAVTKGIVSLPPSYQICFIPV
# [2] = Drug concentration in CD-1 mouse plasma at 10 mg/kg, ip administered for 90 mins; assay type: ADME, organism-based
# [3] = Clearance in CD-1 mouse by LC-MS/MS analysis; assay type: ADME; details: in vivo
# [4] = Plasma protein binding in mouse after 15 mins by equilibrium dialysis method; assay type: ADME, cell-free; details: read-out: PPB (converted)
# [5] = Ratio of drug concentration in ip dosed CD-1 mouse brain to plasma after 1 hr by LC-MS/MS analysis; assay type: ADME, organism-based; details: brain and plasma
# [6] = Metabolic stability in rat liver microsomes assessed as intrinsic clearance at 10 uM preincubated for 5 mins followed by NADPH addition and measured upto 65 mins by LC-MS/MS analysis; assay type: ADME, Microsome; details: time < 70 min, read-out: CLH
# [7] = target: Glutamate NMDA receptor; GRIN1/GRIN2A (Homo sapiens, UniProt Q05586+Q12879); assay: Positive allosteric modulation of recombinant human GluN1/GluN2A receptor stably expressed in HEK293 cells assessed as increase in glycine/L-glutamate-induced channel current at -70 mV holding potential by whole cell patch clamp method; assay type: cell-based
# Chain of Glutamate NMDA receptor; GRIN1/GRIN2A (Q12879 whole entry, other chains not shown): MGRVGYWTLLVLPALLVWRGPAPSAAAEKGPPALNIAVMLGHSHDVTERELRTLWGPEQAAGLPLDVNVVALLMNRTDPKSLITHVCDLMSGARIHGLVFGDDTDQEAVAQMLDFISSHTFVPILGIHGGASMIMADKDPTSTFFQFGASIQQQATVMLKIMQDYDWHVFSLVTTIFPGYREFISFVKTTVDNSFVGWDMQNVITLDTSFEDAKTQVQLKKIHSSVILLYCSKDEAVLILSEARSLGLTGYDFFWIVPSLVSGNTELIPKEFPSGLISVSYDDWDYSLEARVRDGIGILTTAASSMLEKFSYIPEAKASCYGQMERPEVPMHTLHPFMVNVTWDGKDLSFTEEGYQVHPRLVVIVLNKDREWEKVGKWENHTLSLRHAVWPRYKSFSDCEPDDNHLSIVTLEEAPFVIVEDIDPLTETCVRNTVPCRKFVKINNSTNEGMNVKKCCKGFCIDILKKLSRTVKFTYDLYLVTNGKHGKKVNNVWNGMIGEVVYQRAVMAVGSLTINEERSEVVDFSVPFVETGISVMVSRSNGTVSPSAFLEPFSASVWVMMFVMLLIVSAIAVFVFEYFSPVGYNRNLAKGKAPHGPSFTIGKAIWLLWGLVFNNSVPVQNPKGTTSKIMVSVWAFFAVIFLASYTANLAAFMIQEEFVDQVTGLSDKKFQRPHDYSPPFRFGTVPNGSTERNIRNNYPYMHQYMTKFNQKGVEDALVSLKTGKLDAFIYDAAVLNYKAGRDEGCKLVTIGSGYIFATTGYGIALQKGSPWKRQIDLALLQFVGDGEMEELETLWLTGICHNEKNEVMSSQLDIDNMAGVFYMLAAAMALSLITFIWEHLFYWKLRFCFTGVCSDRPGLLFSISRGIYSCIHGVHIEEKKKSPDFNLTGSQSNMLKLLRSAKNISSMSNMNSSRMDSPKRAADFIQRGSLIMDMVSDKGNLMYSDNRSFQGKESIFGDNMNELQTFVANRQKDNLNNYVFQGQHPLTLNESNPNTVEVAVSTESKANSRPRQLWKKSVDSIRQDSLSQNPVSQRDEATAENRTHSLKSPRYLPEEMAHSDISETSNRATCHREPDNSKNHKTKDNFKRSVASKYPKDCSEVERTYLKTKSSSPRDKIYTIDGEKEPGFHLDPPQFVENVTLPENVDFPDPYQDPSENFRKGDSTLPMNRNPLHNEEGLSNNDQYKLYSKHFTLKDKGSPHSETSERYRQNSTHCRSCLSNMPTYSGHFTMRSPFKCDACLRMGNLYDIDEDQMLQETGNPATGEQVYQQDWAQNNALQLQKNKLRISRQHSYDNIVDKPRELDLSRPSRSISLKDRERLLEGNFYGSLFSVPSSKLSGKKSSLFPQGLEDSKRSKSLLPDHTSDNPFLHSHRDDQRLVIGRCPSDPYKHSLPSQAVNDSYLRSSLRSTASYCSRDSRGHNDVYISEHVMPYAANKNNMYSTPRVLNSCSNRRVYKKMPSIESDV
# [8] = target: Glutamate NMDA receptor; GRIN1/GRIN2B (Homo sapiens, UniProt Q05586+Q13224); assay: Positive allosteric modulation of recombinant human GluN1/GluN2B receptor stably expressed in HEK293 cells assessed as increase in glycine/L-glutamate-induced channel current at -70 mV holding potential by whole cell patch clamp method; assay type: cell-based
# Chain of Glutamate NMDA receptor; GRIN1/GRIN2B (Q13224 whole entry, other chains not shown): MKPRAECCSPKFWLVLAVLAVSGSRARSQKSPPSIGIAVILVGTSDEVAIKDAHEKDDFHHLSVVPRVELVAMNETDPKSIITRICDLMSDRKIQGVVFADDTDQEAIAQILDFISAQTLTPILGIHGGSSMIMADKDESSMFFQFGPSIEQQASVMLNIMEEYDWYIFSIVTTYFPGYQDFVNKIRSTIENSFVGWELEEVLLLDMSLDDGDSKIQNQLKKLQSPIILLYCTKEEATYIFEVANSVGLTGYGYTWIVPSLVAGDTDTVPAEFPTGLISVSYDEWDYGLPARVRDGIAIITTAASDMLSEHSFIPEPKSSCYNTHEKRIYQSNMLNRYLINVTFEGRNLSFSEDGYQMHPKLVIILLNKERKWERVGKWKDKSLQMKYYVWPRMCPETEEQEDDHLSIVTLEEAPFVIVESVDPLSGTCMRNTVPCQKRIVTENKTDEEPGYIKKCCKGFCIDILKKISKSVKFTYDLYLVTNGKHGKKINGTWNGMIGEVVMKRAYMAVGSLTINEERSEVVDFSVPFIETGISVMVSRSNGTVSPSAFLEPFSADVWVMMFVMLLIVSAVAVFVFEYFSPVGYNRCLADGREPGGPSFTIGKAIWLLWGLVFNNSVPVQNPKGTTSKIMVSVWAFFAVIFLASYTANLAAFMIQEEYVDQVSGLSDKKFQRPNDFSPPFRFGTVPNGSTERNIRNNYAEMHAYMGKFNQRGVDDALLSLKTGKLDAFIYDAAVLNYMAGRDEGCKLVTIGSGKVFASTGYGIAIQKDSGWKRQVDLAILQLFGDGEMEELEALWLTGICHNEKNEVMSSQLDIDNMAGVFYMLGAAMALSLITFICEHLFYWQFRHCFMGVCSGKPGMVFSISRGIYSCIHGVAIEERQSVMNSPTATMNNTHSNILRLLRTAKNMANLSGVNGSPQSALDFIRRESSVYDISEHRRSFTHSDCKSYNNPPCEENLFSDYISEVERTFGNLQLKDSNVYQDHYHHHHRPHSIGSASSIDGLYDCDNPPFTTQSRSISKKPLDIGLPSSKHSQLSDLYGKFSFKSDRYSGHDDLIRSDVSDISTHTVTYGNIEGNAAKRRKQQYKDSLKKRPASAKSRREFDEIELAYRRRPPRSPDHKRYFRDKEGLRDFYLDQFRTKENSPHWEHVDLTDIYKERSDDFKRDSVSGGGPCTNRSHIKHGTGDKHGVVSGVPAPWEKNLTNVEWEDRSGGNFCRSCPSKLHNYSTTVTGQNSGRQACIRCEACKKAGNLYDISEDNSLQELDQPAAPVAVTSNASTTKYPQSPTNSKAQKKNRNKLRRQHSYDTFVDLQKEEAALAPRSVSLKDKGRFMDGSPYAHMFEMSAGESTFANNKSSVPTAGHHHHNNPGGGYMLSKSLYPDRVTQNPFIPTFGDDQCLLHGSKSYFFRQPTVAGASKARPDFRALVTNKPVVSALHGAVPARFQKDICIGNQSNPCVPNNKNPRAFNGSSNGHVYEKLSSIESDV
# [9] = Drug concentration in CD-1 mouse brain at 7.5 mg/kg, ip administered for 90 mins; assay type: ADME, organism-based; details: read-out: Ct
# [10] = Drug concentration in CD-1 mouse plasma at 5 mg/kg, ip administered for 90 mins; assay type: ADME, organism-based
# [11] = Drug concentration in CD-1 mouse plasma at 7.5 mg/kg, ip administered for 90 mins; assay type: ADME, organism-based
# [12] = Aqueous solubility of compound in PBS incubated for 1 hr under shaking condition by HPLC-MS/MS analysis; assay type: physicochemical
# [13] = target: Ionotropic glutamate receptor NMDA 1/2D (Homo sapiens, UniProt O15399+Q05586); assay: Positive allosteric modulation of recombinant human GluN1/GluN2D receptor stably expressed in HEK293 cells assessed as increase in glycine/L-glutamate-induced channel current at -70 mV holding potential by whole cell patch clamp method
# Chain of Ionotropic glutamate receptor NMDA 1/2D (O15399 whole entry, other chains not shown): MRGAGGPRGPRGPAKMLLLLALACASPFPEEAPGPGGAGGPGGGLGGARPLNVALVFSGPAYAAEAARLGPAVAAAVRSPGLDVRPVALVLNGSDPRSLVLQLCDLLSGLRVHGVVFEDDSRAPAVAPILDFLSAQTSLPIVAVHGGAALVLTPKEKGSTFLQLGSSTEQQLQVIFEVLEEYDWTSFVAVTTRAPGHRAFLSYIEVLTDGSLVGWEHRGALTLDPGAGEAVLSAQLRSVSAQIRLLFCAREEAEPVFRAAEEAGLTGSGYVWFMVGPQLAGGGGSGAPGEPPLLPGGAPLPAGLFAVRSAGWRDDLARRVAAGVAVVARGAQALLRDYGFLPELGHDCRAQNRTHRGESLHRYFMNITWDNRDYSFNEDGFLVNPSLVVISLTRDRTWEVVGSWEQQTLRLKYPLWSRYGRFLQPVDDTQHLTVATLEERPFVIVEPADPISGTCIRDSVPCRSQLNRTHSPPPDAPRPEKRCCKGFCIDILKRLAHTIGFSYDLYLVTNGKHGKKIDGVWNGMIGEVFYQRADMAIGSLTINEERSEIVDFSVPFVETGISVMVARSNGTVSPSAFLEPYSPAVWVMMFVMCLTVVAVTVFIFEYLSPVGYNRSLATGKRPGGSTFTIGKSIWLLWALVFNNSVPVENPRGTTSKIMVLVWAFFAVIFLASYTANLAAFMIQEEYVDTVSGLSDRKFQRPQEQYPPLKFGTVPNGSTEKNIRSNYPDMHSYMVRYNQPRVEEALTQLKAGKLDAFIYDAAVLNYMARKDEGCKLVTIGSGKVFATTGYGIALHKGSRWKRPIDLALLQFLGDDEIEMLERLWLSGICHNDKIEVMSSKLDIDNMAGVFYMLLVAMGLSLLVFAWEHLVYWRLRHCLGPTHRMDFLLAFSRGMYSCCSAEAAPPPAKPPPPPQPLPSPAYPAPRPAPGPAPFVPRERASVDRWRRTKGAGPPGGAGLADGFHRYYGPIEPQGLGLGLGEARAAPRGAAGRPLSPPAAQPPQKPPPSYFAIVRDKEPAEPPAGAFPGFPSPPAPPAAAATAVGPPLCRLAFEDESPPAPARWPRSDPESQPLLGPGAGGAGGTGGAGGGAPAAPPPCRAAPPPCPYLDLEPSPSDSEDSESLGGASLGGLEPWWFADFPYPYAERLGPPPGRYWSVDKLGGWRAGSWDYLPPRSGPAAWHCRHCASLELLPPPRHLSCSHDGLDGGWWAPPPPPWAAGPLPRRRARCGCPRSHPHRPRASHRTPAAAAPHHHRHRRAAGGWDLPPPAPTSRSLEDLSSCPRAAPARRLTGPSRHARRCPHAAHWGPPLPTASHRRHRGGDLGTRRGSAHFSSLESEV
# [14] = target: T2, Potassium/sodium hyperpolarization-activated cyclic nucleotide-gated channel 2 (Homo sapiens, UniProt Q9UL51); assay: Inhibition of HCN2 (unknown origin) by patch clamp method
# T2 sequence (Q9UL51 whole entry): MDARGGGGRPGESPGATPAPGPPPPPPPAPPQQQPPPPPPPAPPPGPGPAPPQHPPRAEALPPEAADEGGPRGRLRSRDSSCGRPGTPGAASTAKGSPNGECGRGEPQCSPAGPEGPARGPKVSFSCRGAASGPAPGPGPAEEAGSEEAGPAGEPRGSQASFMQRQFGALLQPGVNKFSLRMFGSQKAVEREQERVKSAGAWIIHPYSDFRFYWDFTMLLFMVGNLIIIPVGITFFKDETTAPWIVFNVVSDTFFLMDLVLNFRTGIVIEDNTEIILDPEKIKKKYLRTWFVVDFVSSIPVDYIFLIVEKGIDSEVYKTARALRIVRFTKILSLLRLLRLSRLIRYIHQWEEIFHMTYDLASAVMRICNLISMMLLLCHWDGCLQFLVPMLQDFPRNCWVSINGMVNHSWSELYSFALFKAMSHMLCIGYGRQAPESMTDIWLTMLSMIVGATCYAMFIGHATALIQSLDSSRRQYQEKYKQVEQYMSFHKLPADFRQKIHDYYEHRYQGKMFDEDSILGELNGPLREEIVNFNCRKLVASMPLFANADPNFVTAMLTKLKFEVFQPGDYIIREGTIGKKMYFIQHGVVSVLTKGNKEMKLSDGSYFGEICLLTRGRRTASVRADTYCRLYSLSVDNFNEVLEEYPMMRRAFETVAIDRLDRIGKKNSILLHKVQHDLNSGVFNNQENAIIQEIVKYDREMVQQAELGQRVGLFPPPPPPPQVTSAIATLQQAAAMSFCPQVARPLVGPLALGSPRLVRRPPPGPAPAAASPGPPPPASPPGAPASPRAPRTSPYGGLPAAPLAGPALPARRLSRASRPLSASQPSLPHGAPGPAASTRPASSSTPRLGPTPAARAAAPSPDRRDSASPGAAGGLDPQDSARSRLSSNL
# in vivo [15] = details: Sprague-Dawley, rat, brain and plasma
# Description: Ratio of AUC(0 to 72 hrs) in Sprague-Dawley rat brain to plasma by LC-MS/MS analysis
# [16] = Oral bioavailability in Beagle dog by LC-MS/MS analysis; assay type: ADME, organism-based, Canis lupus familiaris; details: in vivo
# [17] = Inhibition of Kv4.3/KChIP2.2 (unknown origin) by patch clamp method; design: species or system Homo sapiens
# Cytochrome P450 3A4 = Cytochrome P450 3A4 (Homo sapiens, UniProt P08684); assay: Inhibition of CYP3A4 (unknown origin); assay type: ADME
# Chain of Cytochrome P450 3A4 (P08684 whole entry): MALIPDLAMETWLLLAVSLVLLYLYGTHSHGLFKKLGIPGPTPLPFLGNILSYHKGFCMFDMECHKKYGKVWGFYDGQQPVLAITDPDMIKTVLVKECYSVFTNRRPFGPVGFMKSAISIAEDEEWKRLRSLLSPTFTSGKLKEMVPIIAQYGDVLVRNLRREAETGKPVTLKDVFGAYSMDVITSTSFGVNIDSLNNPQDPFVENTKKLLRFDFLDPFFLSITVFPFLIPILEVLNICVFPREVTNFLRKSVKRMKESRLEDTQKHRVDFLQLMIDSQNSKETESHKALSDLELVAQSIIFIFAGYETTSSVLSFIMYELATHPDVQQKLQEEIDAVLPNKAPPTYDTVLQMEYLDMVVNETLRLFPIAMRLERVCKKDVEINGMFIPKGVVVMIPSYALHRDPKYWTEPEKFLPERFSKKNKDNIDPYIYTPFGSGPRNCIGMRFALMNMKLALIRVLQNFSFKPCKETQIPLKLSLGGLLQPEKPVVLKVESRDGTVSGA
# Mus musculus = assay: Reversal of DOI-induced hyperlocomotion in CD-1 mouse assessed as reduction in rearing at 5 mg/kg, ip administered 90 mins prior to DOI induction and measured upto 30 mins post DOI treatment (reference value: 59.8 +/- 8.6 Counts); assay type: functional; details: time <= 120 min, 2 h
# Cytochrome P450 2C9 = Cytochrome P450 2C9 (Homo sapiens, UniProt P11712); assay: Inhibition of CYP2C9 (unknown origin); assay type: ADME
# [18] = Clearance in Beagle dog by LC-MS/MS analysis; assay type: ADME, Canis lupus familiaris; details: in vivo
# in vivo [19] = details: CD-1, mouse, brain and plasma
# Description: Ratio of AUC(0 to 72 hrs) in CD-1 mouse brain to plasma by LC-MS/MS analysis
# [20] = Lipophilicity, logD of compound in MeOH at 20 uM by HPLC analysis; assay type: physicochemical
# [21] = Metabolic stability in dog liver microsomes assessed as intrinsic clearance at 10 uM preincubated for 5 mins followed by NADPH addition and measured upto 65 mins by LC-MS/MS analysis; assay type: ADME, Canis lupus familiaris, Microsome; details: time < 70 min, read-out: CLH
compound,measurement,setting,value
C[C@H](CC[C@](C)(O)C(F)(F)F)[C@H]1CC[C@H]2[C@@H]3CC=C4C[C@@](C)(O)CC[C@]4(C)[C@H]3CC[C@]12C [DALZANEMDOR],fraction unbound at 0.25 h,[1],0.022
same,pIC50,Cytochrome P450 2C8,< 5.00
same,concentration at 1.5 h,[2],3.21 µg/mL
same,clearance,[3],0.3 L/h/kg
same,fraction unbound at 0.25 h,[4],0.014
same,Kp at 1 h,[5],0.2
same,microsomal CLint at 10 µM,[6],11 µL/min/mg
same,pEC50,[7],7.07
same,pEC50,[8],7.10
same,concentration at 1.5 h,[9],1190 ng/g
same,concentration at 1.5 h,[10],1.55 µg/mL
same,concentration at 1.5 h,[11],1.59 µg/mL
same,solubility at 1 h,[12],2.2 µM
same,pEC50,[13],6.37
same,pIC50,[14],< 4.52
same,Kp,in vivo [15],5.3
same,bioavailability,[16],30%
same,pIC50,[17],< 4.52
same,pIC50,Cytochrome P450 3A4,< 4.00
same,Activity,Mus musculus,27.1 Counts
same,pIC50,Cytochrome P450 2C9,< 4.00
same,clearance,[18],0.2 L/h/kg
same,Kp,in vivo [19],1.8
same,logD at 20 µM,[20],6.2
same,microsomal CLint at 10 µM,[21],4.7 µL/min/mg
